Data reported in US12448371B2, “Inhibitor compounds” (Cincera Therapeutics Pty Ltd, priority 2019, dated 2025).
Where a name gives a salt, the structure may show the parent alone.

Molecular target: T1, Des1 (h) (Homo sapiens, UniProt O15121)
T1 construct: endogenous in cells; host or cells: parental Jurkat cells
T1 sequence (O15121 1-323): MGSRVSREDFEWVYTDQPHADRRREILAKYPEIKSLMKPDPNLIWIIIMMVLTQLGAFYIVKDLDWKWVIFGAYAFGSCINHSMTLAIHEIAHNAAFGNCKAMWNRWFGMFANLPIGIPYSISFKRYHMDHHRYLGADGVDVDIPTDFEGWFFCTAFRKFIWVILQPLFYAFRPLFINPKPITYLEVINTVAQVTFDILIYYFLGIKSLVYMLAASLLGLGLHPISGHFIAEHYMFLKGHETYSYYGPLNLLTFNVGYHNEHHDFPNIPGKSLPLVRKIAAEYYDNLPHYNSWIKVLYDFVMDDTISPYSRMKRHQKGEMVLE
Test: Measurement of Dihydroceramide Desaturase-1 (Des-1) activity in intact Jurkat cells labeled with DhCer-C6-NBD (HPLC)
Assay type: cell-based
Conditions: for IC50: intact Jurkat cells, given as concentration range, or <X / >X if measured at one concentration X only, read-out: Des1 (h) Jurkat IC50
Description: Measurement of Dihydroceramide Desaturase-1 (Des-1) Activity
Compounds were assessed for Des-1 inhibitory activity. Measurement of Des1 activity was performed by HPLC using intact Jurkat cells labeled with DhCer-C6-NBD as described previously (Munoz-Olaya, J. M. et al. ChemMedChem 2008, 3, 946-953) with modifications to enhance sensitivity and reproducibility. These modifications included the use of parental Jurkat cells, 0.5% serum in the culture media, and cell harvesting via centrifugation at 500×g to maximise ceramide extraction. Extracted samples (50 ul) were analysed on a Waters HPLC coupled to a fluorescence detector using a 30 cm C18 reverse-phase column eluted with 1 ml/min 20% H2O and 80% acetonitrile, both with a 0.1% of trifluoroacetic acid. NBD-labelled substrate and product were quantitated with an excitation and emission wavelengths of 465 nm and 530 nm, respectively.

SMILES	IC50 [µM]	also measured
Cc1cc(Nc2ncc(-c3ccc(C(F)(F)F)cc3)o2)cc(=O)n1O [Example 27, 1-Hydroxy-6-methyl-4-((5-(4-(trifluoromethyl)phenyl)oxazol-2-yl)amino)pyridin-2(1H)-one]	0.0001 to 0.001	–
CC(C)N(O)C(=O)c1ccc(Nc2ncc(-c3ccc(C(F)(F)F)cc3)o2)cn1 [Example 34, N-Hydroxy-N-isopropyl-5-((5-(4-(trifluoromethyl)phenyl)oxazol-2-yl)amino)picolinamide]	> 1	inhibition at 1 µM (Jurkat cells, 1 μM): 23%
CN(O)C(=O)Nc1ccc(Nc2ncc(-c3ccc(C(F)(F)F)cc3)o2)cn1 [Example 35, 1-Hydroxy-1-methyl-3-(5-((5-(4-(trifluoromethyl)phenyl)oxazol-2-yl)amino)pyridin-2-yl)urea]	0.01 to 0.1	–
O=C(NC[C@@H](O)CO)c1ccc(Nc2ncc(-c3ccc(C(F)(F)F)cc3)o2)cn1 [Example 36, (R)—N-(2,3-Dihydroxypropyl)-5-((5-(4-(trifluoromethyl)phenyl)oxazol-2-yl)amino)picolinamide]	0.001 to 0.01	–
O=C(NC[C@H](O)CO)c1ccc(Nc2ncc(-c3ccc(C(F)(F)F)cc3)o2)cn1 [Example 37, (S)—N-(2,3-Dihydroxypropyl)-5-((5-(4-(trifluoromethyl)phenyl)oxazol-2-yl)amino)picolinamide]	> 1	% inhibition of Des1 at 1 μM (Jurkat cells, 1 μM): no inhibition
O=C(NC[C@@H](O)CO)c1ccc(Nc2ncn(-c3ccc(C(F)(F)F)cc3)n2)cn1 [Example 38, (R)—N-(2,3-Dihydroxypropyl)-5-((1-(4-(trifluoromethyl)phenyl)-1H-1,2,4-triazol-3-yl)amino)picolinamide]	> 1	inhibition at 1 µM (Jurkat cells, 1 μM): 30%
N/C(=N\O)c1ncc(Nc2ncc(-c3ccc(C(F)(F)F)cn3)o2)cc1O [Example 40, N′,3-Dihydroxy-5-((5-(5-(trifluoromethyl)pyridin-2-yl)oxazol-2-yl)amino)picolinimidamide hydrochloride]	0.01 to 0.1	–
N/C(=N\O)c1ncc(Nc2ncc(-c3ccc(C(F)(F)F)c(F)c3)o2)cc1O [Example 43, 5-((5-(3-Fluoro-4-(trifluoromethyl)phenyl)oxazol-2-yl)amino)-N′,3-dihydroxypicolinimidamide]	0.001 to 0.01	–
N/C(=N\O)c1ccc(Nc2ncc(-c3ccc(OC(F)F)cc3)o2)cn1 [Example 51, 5-((5-(4-(Difluoromethoxy)phenyl)oxazol-2-yl)amino)-N′-hydroxy picolinimidamide]	0.1 to 1	–
N/C(=N\O)c1ccc(Nc2ncc(-c3ccc(C(F)F)cc3)o2)cn1 [Example 52, 5-((5-(4-(Difluoromethyl)phenyl)oxazol-2-yl)amino)-N′-hydroxypicolinimidamide]	0.1 to 1	–
N/C(=N\O)c1ccc(Nc2ncc(-c3ccc(C(F)(F)F)cc3)o2)nn1 [Example 53, N′-Hydroxy-6-((5-(4-(trifluoromethyl)phenyl)oxazol-2-yl)amino)pyridazine-3-carboximidamide]	0.001 to 0.01	–
N/C(=N\O)c1ncc(Nc2ncc(-c3ccc(C(F)(F)F)cn3)o2)cc1F [Example 56, 3-Fluoro-N′-hydroxy-5-((5-(5-(trifluoromethyl)pyridin-2-yl)oxazol-2-yl)amino)picolinimidamide]	–	% inhibition of Des1 at 0.1 μM (Jurkat cells, 0.1 μM): 86%
N/C(=N\O)c1ccc(Nc2ncc(-c3ccc(C(F)(F)F)nc3)o2)cn1 [Example 59, N′-Hydroxy-5-((5-(6-(trifluoromethyl)pyridin-3-yl)oxazol-2-yl)amino)picolinimidamide]	< 1	–
N/C(=N\O)c1ccc(Nc2ncc(-c3ccc(C(F)(F)F)cn3)o2)nn1 [Example 61, N′-hydroxy-6-((5-(5-(trifluoromethyl)pyridin-2-yl)oxazol-2-yl)amino)pyridazine-3-carboximidamide]	< 0.1	–
N/C(=N\O)c1cnc(Nc2ncc(-c3ccc(C(F)(F)F)cc3)o2)nc1 [Example 63, N′-Hydroxy-2-((5-(4-(trifluoromethyl)phenyl)oxazol-2-yl)amino)pyrimidine-5-carboximidamide]	> 1	inhibition at 1 µM (Jurkat cells, 1 μM): 23%
N/C(=N/O)c1ccc(Nc2ncc(-c3ccc(N4CC(F)(F)C4)cc3)o2)cn1 [Example 64, 5-((5-(4-(3,3-Difluoroazetidin-1-yl)phenyl)oxazol-2-yl)amino)-N′-hydroxypicolinimidamide]	> 1	inhibition at 1 µM (Jurkat cells, 1 μM): 23%
N/C(=N/O)c1ccc(Nc2ncc(-c3ncc(C(F)(F)F)cn3)o2)cn1 [Example 65, N′-Hydroxy-5-((5-(5-(trifluoromethyl)pyrimidin-2-yl)oxazol-2-yl)amino)picolinimidamide]	> 1	inhibition at 1 µM (Jurkat cells, 1 μM): 26%

Now from value to molecule, other results behind:

IC50 [µM]	SMILES	also measured
< 1	CN(O)C(=O)c1ccc(Nc2ncn(-c3ccc(C(F)(F)F)cc3)n2)cn1 [Example 25, N-Hydroxy-N-methyl-5-((1-(4-(trifluoromethyl)phenyl)-1H-1,2,4-triazol-3-yl)amino)picolinamide]	–
0.001 to 0.01	N/C(=N\O)c1ncc(Nc2ncc(-c3ccc(C(F)(F)F)cc3)o2)cc1O [Example 26, N′,3-Dihydroxy-5-((5-(4-(trifluoromethyl)phenyl)oxazol-2-yl)amino)picolinimidamide]	–
< 1	CN(O)C(=O)c1ncc(Nc2ncc(-c3ccc(C(F)(F)F)cc3)o2)cc1O [Example 28, N,3-Dihydroxy-N-methyl-5-((5-(4-(trifluoromethyl)phenyl)oxazol-2-yl)amino)picolinamide]	–
< 1	O=c1c(O)c(Nc2ccc(Nc3ncc(-c4ccc(C(F)(F)F)cc4)o3)cn2)c1=O [Example 30, 3-Hydroxy-4-((5-((5-(4-(trifluoromethyl)phenyl)oxazol-2-yl)amino)pyridin-2-yl)amino)cyclobut-3-ene-1,2-dione]	–
< 1	N/C(=N\O)c1ncc(Nc2ncn(-c3ccc(C(F)(F)F)cc3)n2)cc1O [Example 31, N′,3-Dihydroxy-5-((1-(4-(trifluoromethyl)phenyl)-1H-1,2,4-triazol-3-yl)amino)picolinimidamide]	–
< 1	CCN(O)C(=O)c1ccc(Nc2ncc(-c3ccc(C(F)(F)F)cc3)o2)cn1 [Example 32, N-Ethyl-N-hydroxy-5-((5-(4-(trifluoromethyl)phenyl)oxazol-2-yl)amino)picolinamide]	–
< 1	Cc1nc(Nc2cnc(/C(N)=N/O)c(O)c2)oc1-c1ccc(C(F)(F)F)cc1 [Example 39, N′,3-Dihydroxy-5-((4-methyl-5-(4-(trifluoromethyl)phenyl)oxazol-2-yl)amino)picolinimidamide]	–
< 0.1	O=C(NC[C@@H](O)CO)c1ccc(Nc2ncc(-c3ccc(C(F)(F)F)cc3)o2)nn1 [Example 41, (R)—N-(2,3-Dihydroxypropyl)-6-((5-(4-(trifluoromethyl)phenyl)oxazol-2-yl)amino)-pyridazine-3-carboxamide]	–
0.001 to 0.01	O=C(NC[C@@H](O)CO)c1ccc(Nc2ncc(-c3ccc(C(F)(F)F)c(F)c3)o2)cn1 [Example 44, (R)—N-(2,3-Dihydroxypropyl)-5-((5-(3-fluoro-4-(trifluoromethyl)phenyl)oxazol-2-yl)amino)picolinamide]	–
< 0.1	N/C(=N\O)c1ccc(Nc2ncc(-c3ccc(C(F)(F)F)c(F)c3)o2)cn1 [Example 45, 5-((5-(3-Fluoro-4-(trifluoromethyl)phenyl)oxazol-2-yl)amino)-N′-hydroxypicolinimidamide]	–
< 0.1	N=C(NO)c1ccc(Nc2ncc(-c3ccc(F)cc3)o2)nn1 [Example 47, 6-((5-(4-Fluorophenyl)oxazol-2-yl)amino)-N′-hydroxypyridazine-3-carboximidamide]	–
0.001 to 0.01	N=C(NO)c1ccc(Nc2ncc(-c3ccc(F)c(F)c3)o2)nn1 [Example 48, 6-((5-(3,4-Difluorophenyl)oxazol-2-yl)amino)-N′-hydroxypyridazine-3-carboximidamide]	–
< 0.1	N=C(NO)c1ccc(Nc2ncc(-c3ccc(F)cn3)o2)nn1 [Example 49, 6-((5-(5-Fluoropyridin-2-yl)oxazol-2-yl)amino)-N′-hydroxypyridazine-3-carboximidamide]	–
< 1	N=C(NO)c1cc(Nc2ncc(-c3ccc(C(F)(F)F)cc3)o2)ncc1O [Example 50, N,5-Dihydroxy-2-((5-(4-(trifluoromethyl)phenyl)oxazol-2-yl)amino)isonicotinimid-amide]	–
> 1	N/C(=N\O)c1ncc(Nc2ncc(-c3ccc(C(F)(F)F)cn3)o2)cn1 [Example 58, N′-Hydroxy-5-((5-(5-(trifluoromethyl)pyridin-2-yl)oxazol-2-yl)amino)pyrimidine-2-carboximidamide]	inhibition at 1 µM (Jurkat cells, 1 μM): 40%
< 1	N/C(=N\O)c1ccc(Nc2nc(-c3ccc(C(F)(F)F)cc3)co2)cn1 [Example 60, N′-Hydroxy-5-((4-(4-(trifluoromethyl)phenyl)oxazol-2-yl)amino)picolinimidamide]	–
> 1	N/C(=N/O)c1ccc(Nc2ncc(-c3ccc(C4CC4)cn3)o2)cn1 [Example 62, 5-((5-(5-Cyclopropylpyridin-2-yl)oxazol-2-yl)amino)-N′-hydroxypicolinimidamide]	inhibition at 1 µM (Jurkat cells, 1 μM): 42%
